What was measured:
Tetranychus urticae = assay: Tetranychus test (OP-resistant/spray application); assay type: in vivo; conditions: 100 g/ha, spray on bean leaf slices
Procedure: Tetranychus test (OP-Resistant/Spray Application)
(§1) To produce a suitable preparation of active compound, 1 part by weight of active compound is mixed with the stated amounts of solvent and emulsifier, and the concentrate is diluted with emulsifier-containing water to the desired concentration.
Bean leave slices (Phaseolus vulgaris), which are infested with all stages of the two-spotted spider mite (Tetranychus urticae), are treated by being sprayed with the preparation of the active compound of the desired concentration.
After the specified period of time, the mortality in % is determined. 100% means that all the […] have been killed; 0% means that none of the […] have been killed.

Plutella xylostella = assay: Plutella test; assay type: in vivo; conditions: 20 ppm, cabbage leaves dipped
Procedure: as §1
Cabbage leaves (Brassica oleracea) are treated by being dipped into the preparation of active compound of the desired concentration and are populated with caterpillars of the diamondback moth (Plutella xylostella) while the leaves are still moist.
After the desired period of time, the kill in % is determined. 100% means that all caterpillars have been killed; 0% means that none of the caterpillars have been killed.

SMILES: CSC[C@H](C)NC(=O)c1c(Cl)cccc1C(=O)Nc1ccc(C(C(F)F)C(F)(F)F)cc1Cl (stereo partly drawn) [Compound 42]
- Kill rate in % after 5 d (Tetranychus urticae): 80%

SMILES: Cc1cc(C(F)(C(F)F)C(F)(F)F)ccc1NC(=O)c1cccc(Cl)c1C(=O)N[C@@H](C)CS(C)(=O)=O (stereo partly drawn) [Compound 44]
- Kill rate in % after 5 d (Tetranychus urticae): 80%
- Kill rate in % after 7 d (Plutella xylostella): 100%

Reference: US20090118375A1, “Optically active phthalamides” (priority 2004, published 2009)
